Measured values reported in EP4810052A2, “HCRHR2 SELECTIVE POLYPEPTIDES” (Gubra A/S, priority 2023, dated 2026).
Marks after values point to notes of the source that are not given here. Starred links: 1 amine or outer side, 2 acyl side, 3 side chain; linkers in the order of their positions; H or OH if unused. Non-standard residues stand in square brackets, D forms with d. Residues, ends and D or L forms follow the SMILES beside them. Groups on a side chain read outwards from the residue. *: point of attachment. C20 diacid = O=C(O)CCCCCCCCCCCCCCCCCCC(=O)*; γGlu = O=C(O)[C@H](CCC(=O)[*:2])N[*:1]; NMeI = CC[C@H](C)[C@H](NC)C(=O)O; Nle = CCCC[C@H](N)C(=O)O; AEEA = NCCOCCOCC(=O)O; Aib = CC(C)(N)C(=O)O

Tests used:
[1] = Chemical stability of purified peptides (RP-UHPLC main peak purity loss); assay type: physicochemical
Procedure, shortened: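 Peptides at about 1.0 mg/ml in 50 mM phosphate buffer pH 7.5, or pH-adjusted for the pH series, were incubated at 40 °C for 14 and 28 days. Main-peak purity was taken as main-peak area over total area by RP-UHPLC (UV 215 nm, C8, 50 °C). Purity loss was calculated versus T0.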

[2] = Effect on acute food intake in mice; assay type: in vivo; conditions: single subcutaneous dose
Protocol: Male NMRI mice were obtained from JanVier (JanVier Labs, France) at 5 weeks of age. The animals were group-housed 4 mice pr. cage under a 12/12 h dark-light cycle, light off at 1 PM. Room temperature was controlled to 22°C ± 1°C, with 60 % ± 20% humidity. Animals had ad libitum access to regular rodent chow (Altromin 1324, Brogaarden, Denmark) and tap water.
Animals were transferred 5-7 days before the start of the study to a real-time food intake monitoring system, HM-2 system (MBRose, Denmark) to allow acclimatization to experimental conditions. As the animals were uniquely identified with microchips, each individual animal was identified by its microchip upon entry and exit from the food channel. Randomization of the mice for each study group (n=7-8) was based on body weight measured the day before the start of the study. A vehicle-treated group was included in each experiment. Six hours before the start of the dark phase, animals were fasted. One hour before the dark phase, animals were dosed once subcutaneously with test peptide. Food intake was reported hourly for a period of 72 hours. The percentage of food intake reduction was normalized to average food intake from the vehicle group. Statistical significance was evaluated using One-way analysis of variance with Dunnett's multiple comparison test. P < 0.05 was considered statistically significant.
Selected compounds were tested according to the general procedure on acute food intake in mice to determine the effect of a single subcutaneous dose on food intake in mice over 3 days.

[3] = pH 7.5
[4] = PK in rats; assay type: in vivo; set-up: T½ / MRT: unit not given here; conditions: Rat
Protocol: Lean male Sprague Dawley rats (RJHan:SD) were obtained from JanVier (JanVier Labs, France) at 7 weeks of age. The animals were pair housed until randomization under a 12/12 h dark-light cycle, light off at 3 PM. Room temperature was controlled to 22°C ± 1°C, with 60 % ± 20% humidity.
Animals had ad libitum access to regular rodent chow (Altromin 1324, Brogaarden, Denmark) and tap water.
After 2 weeks of acclimatization, the animals were single housed and randomized into treatment groups (n = 3 per group) based on body weight on study day -3. On study day 1, animals were dosed 50 nmol/kg IV and SC in combination of two peptides. Plasma samples were collected for PK analysis at times 0.17, 1, 3, 6, 24, 30, 48, 72 and 96 hours post dosing. Plasma samples were analyzed using LC-MSMS and PK parameters were estimated by Non-Compartmental Analysis (NCA).

[5] = pH 7.5, 40°C, 14 days, first value of cell
[6] = pH 7.5, 40°C, 28 days, second value of cell

For `CC[C@H](C)[C@H](N)C(=O)N[C@H](C(=O)N[C@@H](CC(C)C)C(=O)N[C@@H](CO)C(=O)N[C@@H](CC(C)C)C(=O)N[C@@H](CC(=O)O)C(=O)N[C@H](C(=O)N1CCC[C@H]1C(=O)N[C@H](C(=O)NCC(=O)N[C@@H](CC(C)C)C(=O)N[C@@H](CC(C)C)C(=O)N[C@@H](CCC(N)=O)C(=O)N[C@H](C(=O)N[C@@H](CC(C)C)C(=O)N[C@@H](CC(C)C)C(=O)N[C@@H](CCC(=O)O)C(=O)N[C@@H](CCC(N)=O)C(=O)N[C@@H](C)C(=O)N[C@@H](CCCNC(=N)N)C(=O)N[C@@H](C)C(=O)N[C@@H](CCCNC(=N)N)C(=O)N[C@@H](C)C(=O)N[C@@H](C)C(=O)N[C@@H](CCCNC(=N)N)C(=O)N[C@@H](CCC(=O)O)C(=O)N[C@@H](CCC(N)=O)C(=O)N[C@@H](C)C(=O)N[C@@H](CCCCNC(=O)COCCOCCNC(=O)COCCOCCNC(=O)CC[C@H](NC(=O)CC[C@H](NC(=O)CCCCCCCCCCCCCCCCCCC(=O)O)C(=O)O)C(=O)O)C(=O)NC(C)(C)C(=O)N[C@@H](CC(N)=O)C(=O)N[C@@H](C)C(=O)N[C@@H](CCC(=O)O)C(=O)N[C@H](C(=O)N[C@@H](CC(C)C)C(=O)N[C@@H](C)C(=O)N[C@@H](CCC(=O)O)C(=O)N[C@H](C(N)=O)C(C)C)[C@@H](C)CC)[C@@H](C)CC)[C@@H](C)CC)C(C)C)C(C)C` [SEQ ID NO: 19] (H-IVLSLDVPIGLLQILLEQARARAAREQAK([AEEA-AEEA-γGlu-γGlu-C20 diacid])[Aib]NAEILAEV-NH2), the “Chemical stability at pH 7.5 after 14 days at 40°C (% degradation)” value [1, 5] was -1.5%, the “Chemical stability at pH 7.5 after 28 days at 40°C (% degradation)” value [1, 6] was -2.6% and the “% FI compared to vehicle, 24 h post-dosing” value (from here on “% FI compared to vehicle”) ([2]; 30 nmol/kg) was 56.47*** %. For the same compound, the “% FI compared to vehicle” value ([2]; 100 nmol/kg) was 29.68*** %, the “% FI compared to vehicle” value ([2]; 300 nmol/kg) was 21.66*** % and the “Solubility pH 7.5, target conc. =10 mg/mL (measured mg/mL)” value [3] was 9.6 mg/mL. The MRT [4] was 7.4 and the T½ [4] was 5.9.

In the case of `CC[C@H](C)[C@H](N)C(=O)N[C@H](C(=O)N[C@@H](CC(C)C)C(=O)N[C@@H](CO)C(=O)N[C@@H](CC(C)C)C(=O)N[C@@H](CC(=O)O)C(=O)N[C@H](C(=O)N1CCC[C@H]1C(=O)N[C@H](C(=O)NCC(=O)N[C@@H](CC(C)C)C(=O)N[C@@H](CC(C)C)C(=O)N[C@@H](CCC(N)=O)C(=O)N[C@H](C(=O)N[C@@H](CC(C)C)C(=O)N[C@@H](CC(C)C)C(=O)N[C@@H](CCC(=O)O)C(=O)N[C@@H](CCC(N)=O)C(=O)N[C@@H](C)C(=O)N[C@@H](CCCNC(=N)N)C(=O)N[C@@H](C)C(=O)N[C@@H](CCCNC(=N)N)C(=O)N[C@@H](C)C(=O)N[C@@H](C)C(=O)N[C@@H](CCCNC(=N)N)C(=O)N[C@@H](CCC(=O)O)C(=O)N[C@@H](CCC(N)=O)C(=O)N[C@@H](C)C(=O)N[C@@H](CCCCNC(=O)COCCOCCNC(=O)COCCOCCNC(=O)CC[C@H](NC(=O)CC[C@H](NC(=O)CCCCCCCCCCCCCCCCCCC(=O)O)C(=O)O)C(=O)O)C(=O)N[C@@H](CCC(=O)O)C(=O)N[C@@H](CC(N)=O)C(=O)N[C@@H](C)C(=O)N[C@@H](CCC(=O)O)C(=O)N[C@H](C(=O)N[C@@H](CC(C)C)C(=O)N[C@@H](C)C(=O)N[C@@H](CCC(=O)O)C(=O)N[C@H](C(N)=O)C(C)C)[C@@H](C)CC)[C@@H](C)CC)[C@@H](C)CC)C(C)C)C(C)C` [SEQ ID NO: 17] (H-IVLSLDVPIGLLQILLEQARARAAREQAK([AEEA-AEEA-γGlu-γGlu-C20 diacid])ENAEILAEV-NH2), the “Chemical stability at pH 7.5 after 14 days at 40°C (% degradation)” value [1, 5] is reported as -1.6%, the “Chemical stability at pH 7.5 after 28 days at 40°C (% degradation)” value [1, 6] is reported as -2.6% and the “% FI compared to vehicle” value ([2]; 30 nmol/kg) is reported as 78.97* %. The “% FI compared to vehicle” value ([2]; 100 nmol/kg) was 48.64*** %, the “% FI compared to vehicle” value ([2]; 300 nmol/kg) was 19.52*** % and the “Solubility pH 7.5, target conc. =10 mg/mL (measured mg/mL)” value [3] was 9.2 mg/mL. For the same compound, the MRT [4] was 7.6 and the T½ [4] was 7.1.

For `CCCC[C@H](NC(=O)[C@@H](NC(=O)[C@H](CCC(=O)O)NC(=O)[C@H](C)NC(=O)[C@H](CC(N)=O)NC(=O)[C@H](CCC(=O)O)NC(=O)[C@H](CCCCNC(=O)COCCOCCNC(=O)COCCOCCNC(=O)CC[C@H](NC(=O)CC[C@H](NC(=O)CCCCCCCCCCCCCCCCCCC(=O)O)C(=O)O)C(=O)O)NC(=O)[C@H](C)NC(=O)[C@H](CCC(N)=O)NC(=O)[C@H](CCC(=O)O)NC(=O)[C@H](CCCNC(=N)N)NC(=O)[C@H](C)NC(=O)[C@H](C)NC(=O)[C@H](CCCNC(=N)N)NC(=O)[C@H](C)NC(=O)[C@H](CCCNC(=N)N)NC(=O)[C@H](C)NC(=O)[C@H](CCC(N)=O)NC(=O)[C@H](CO)NC(=O)[C@H](CC(C)C)NC(=O)[C@H](CC(C)C)NC(=O)[C@@H](NC(=O)[C@H](CCC(N)=O)NC(=O)[C@H](CC(C)C)NC(=O)[C@H](CC(C)C)NC(=O)CNC(=O)[C@@H](NC(=O)[C@@H]1CCCN1C(=O)[C@@H](NC(=O)[C@H](CC(=O)O)NC(=O)[C@H](CC(C)C)NC(=O)[C@H](CO)NC(=O)[C@H](CC(C)C)NC(=O)[C@@H](NC(=O)[C@@H](NC)[C@@H](C)CC)C(C)C)C(C)C)[C@@H](C)CC)[C@@H](C)CC)[C@@H](C)CC)C(=O)N[C@@H](C)C(=O)N[C@@H](CCC(=O)O)C(=O)N[C@H](C(N)=O)C(C)C` [compound 101] (H-[NMeI]VLSLDVPIGLLQILLSQARARAAREQAK([AEEA-AEEA-γGlu-γGlu-C20 diacid])ENAEI[Nle]AEV-NH2), the “Chemical stability at pH 7.5 after 14 days at 40°C (% degradation)” value ([1]; pH 7.5, 14 days, 40°C) was -2.2%, the “Chemical stability at pH 7.5 after 28 days at 40°C (% degradation)” value ([1]; pH 7.5, 28 days, 40°C) was -4.3% and the “% FI compared to vehicle” value ([2]; 30 nmol/kg) was 30.85*** %. The “% FI compared to vehicle” value ([2]; 100 nmol/kg) was 21.44*** %, the “% FI compared to vehicle” value ([2]; 300 nmol/kg) was 8.09*** % and the “Solubility pH 7.5, target conc. =10 mg/mL (measured mg/mL)” value [3] was 11 mg/mL. The MRT [4] was 6.8 and the T½ [4] was 6.5.

For `CCCC[C@H](NC(=O)[C@@H](NC(=O)[C@H](CCC(=O)O)NC(=O)[C@H](C)NC(=O)[C@H](CC(N)=O)NC(=O)C(C)(C)NC(=O)[C@H](CCCCNC(=O)COCCOCCNC(=O)COCCOCCNC(=O)CC[C@H](NC(=O)CC[C@H](NC(=O)CCCCCCCCCCCCCCCCCCC(=O)O)C(=O)O)C(=O)O)NC(=O)[C@H](C)NC(=O)[C@H](CCC(N)=O)NC(=O)[C@H](CCC(=O)O)NC(=O)[C@H](CCCNC(=N)N)NC(=O)[C@H](C)NC(=O)[C@H](C)NC(=O)[C@H](CCCNC(=N)N)NC(=O)[C@H](C)NC(=O)[C@H](CCCNC(=N)N)NC(=O)[C@H](C)NC(=O)[C@H](CCC(N)=O)NC(=O)[C@H](CO)NC(=O)[C@H](CC(C)C)NC(=O)[C@H](CC(C)C)NC(=O)[C@@H](NC(=O)[C@H](CCC(N)=O)NC(=O)[C@H](CC(C)C)NC(=O)[C@H](CC(C)C)NC(=O)CNC(=O)[C@@H](NC(=O)[C@@H]1CCCN1C(=O)[C@@H](NC(=O)[C@H](CC(=O)O)NC(=O)[C@H](CC(C)C)NC(=O)[C@H](CO)NC(=O)[C@H](CC(C)C)NC(=O)[C@@H](NC(=O)[C@@H](N)[C@@H](C)CC)C(C)C)C(C)C)[C@@H](C)CC)[C@@H](C)CC)[C@@H](C)CC)C(=O)N[C@@H](C)C(=O)N[C@@H](CCC(=O)O)C(=O)N[C@H](C(N)=O)C(C)C` [compound 237] (H-IVLSLDVPIGLLQILLSQARARAAREQAK([AEEA-AEEA-γGlu-γGlu-C20 diacid])[Aib]NAEI[Nle]AEV-NH2), the “Chemical stability at pH 7.5 after 14 days at 40°C (% degradation)” value ([1]; pH 7.5, 14 days, 40°C) was -1.1%, the “Chemical stability at pH 7.5 after 28 days at 40°C (% degradation)” value ([1]; pH 7.5, 28 days, 40°C) was -2.8% and the “% FI compared to vehicle” value ([2]; 30 nmol/kg) was 51.49*** %. The “% FI compared to vehicle” value ([2]; 100 nmol/kg) was 16.66*** %, the “% FI compared to vehicle” value ([2]; 300 nmol/kg) was 13.2*** % and the “Solubility pH 7.5, target conc. =10 mg/mL (measured mg/mL)” value [3] was 10 mg/mL. The MRT [4] was 5.1 and the T½ [4] was 4.1.
